Data: US7157487B2, “Vla-4 inhibitors” (Daiichi Pharmaceutical Co., Ltd., priority 2000, dated 2007)

Legend:
[1] = molecular target: T1, integrins haα4 and β1 (VLA-4) expressed on CHO cells (Homo sapiens, UniProt P05556+P13612); experiment: In vitro Evaluation Test (1): binding of Eu3+-hVCAM-1 D1D7-IgG to CHO cells expressing integrins α4 and β1; settings: inhibition of Eu3+-hVCAM-1 D1D7-IgG binding to CHO cells expressing α4β1; Ki calculated from IC50
T1 construct: expressed in transfected cells; host or cells: CHO cells
Procedure, shortened: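 CHO cells transduced with human α4 and β1 were grown for 2 days. They were incubated 1 h at room temperature with Eu3+-hVCAM-1 D1D7-IgG (diluted to 2 nM before addition) and compound, with or without 6% HSA, in HEPES pH 7.5 containing Ca2+, Mg2+ and 4 mM Mn2+. Time-resolved fluorescence gave IC50; Ki used a Scatchard-derived Kd (0.06–20 nM).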

[2] = Evaluation of oral bioavailability by mouse bioassay; type: in vivo; settings: 10 mg/kg oral, female Balb/C mice, serum 15 minutes after administration, read-out: Blood level
Protocol: A test compound was suspended or dissolved in a proper administration medium to give a concentration of 1 mg/ml. To 7 to 9 week old female Balb/C mice, 10 mg/kg of the resulting suspension or solution was orally administered. Fifteen minutes after the administration, blood was collected from the postcava under anesthesia with ether and the serum was separated from it. The concentration of each test compound was determined by estimating the serum level from a calibration curve obtained with VCAM-1/VLA-4 inhibitory activity as an index or measuring the concentration by using LC/MS/MS.

T1 sequence (P13612 34-1032): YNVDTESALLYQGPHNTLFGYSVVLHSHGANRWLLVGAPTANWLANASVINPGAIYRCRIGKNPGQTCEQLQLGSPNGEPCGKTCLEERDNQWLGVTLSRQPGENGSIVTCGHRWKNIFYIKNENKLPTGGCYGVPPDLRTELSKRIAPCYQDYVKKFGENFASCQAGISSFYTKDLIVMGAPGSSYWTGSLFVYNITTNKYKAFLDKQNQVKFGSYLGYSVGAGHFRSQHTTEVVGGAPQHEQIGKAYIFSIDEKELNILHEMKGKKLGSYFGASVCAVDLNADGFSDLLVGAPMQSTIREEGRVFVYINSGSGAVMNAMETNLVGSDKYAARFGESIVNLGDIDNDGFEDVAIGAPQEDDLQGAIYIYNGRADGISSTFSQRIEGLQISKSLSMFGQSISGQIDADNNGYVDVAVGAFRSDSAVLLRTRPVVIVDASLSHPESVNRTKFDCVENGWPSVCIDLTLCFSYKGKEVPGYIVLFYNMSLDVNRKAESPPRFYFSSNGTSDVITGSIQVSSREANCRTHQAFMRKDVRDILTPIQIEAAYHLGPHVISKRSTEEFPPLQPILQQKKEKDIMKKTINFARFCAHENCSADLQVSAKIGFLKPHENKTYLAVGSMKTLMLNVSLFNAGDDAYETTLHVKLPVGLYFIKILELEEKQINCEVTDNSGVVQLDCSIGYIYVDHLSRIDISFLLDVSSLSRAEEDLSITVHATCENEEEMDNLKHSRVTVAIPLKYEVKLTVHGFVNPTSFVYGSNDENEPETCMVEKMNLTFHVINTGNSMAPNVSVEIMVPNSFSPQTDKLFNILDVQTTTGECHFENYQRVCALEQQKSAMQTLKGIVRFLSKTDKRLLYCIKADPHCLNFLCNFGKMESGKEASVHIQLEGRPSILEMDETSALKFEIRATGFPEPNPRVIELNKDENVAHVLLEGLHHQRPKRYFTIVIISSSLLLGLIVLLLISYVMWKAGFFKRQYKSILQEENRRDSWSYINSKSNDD
T1 sequence (P05556 21-798): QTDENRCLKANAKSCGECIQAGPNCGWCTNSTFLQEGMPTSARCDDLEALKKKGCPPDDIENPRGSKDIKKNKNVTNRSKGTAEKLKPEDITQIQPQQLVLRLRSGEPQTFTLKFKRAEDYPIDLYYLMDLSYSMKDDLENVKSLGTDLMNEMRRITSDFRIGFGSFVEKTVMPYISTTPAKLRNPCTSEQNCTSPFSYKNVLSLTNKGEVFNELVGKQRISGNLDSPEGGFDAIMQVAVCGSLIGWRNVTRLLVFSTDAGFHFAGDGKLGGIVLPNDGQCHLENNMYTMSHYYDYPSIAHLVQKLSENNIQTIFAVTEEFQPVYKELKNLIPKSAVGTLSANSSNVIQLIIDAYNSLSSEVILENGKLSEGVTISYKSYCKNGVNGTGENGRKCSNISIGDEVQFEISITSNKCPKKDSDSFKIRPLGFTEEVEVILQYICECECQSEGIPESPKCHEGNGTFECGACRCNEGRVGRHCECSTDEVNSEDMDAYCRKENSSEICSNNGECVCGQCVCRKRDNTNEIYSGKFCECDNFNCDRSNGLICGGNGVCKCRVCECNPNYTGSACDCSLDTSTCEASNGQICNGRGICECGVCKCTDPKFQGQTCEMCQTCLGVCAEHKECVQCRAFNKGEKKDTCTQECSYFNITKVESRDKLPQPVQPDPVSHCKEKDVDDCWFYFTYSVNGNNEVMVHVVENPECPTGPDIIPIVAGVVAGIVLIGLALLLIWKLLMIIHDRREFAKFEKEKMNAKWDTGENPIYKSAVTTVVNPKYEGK

SMILES	Ki [1]	concentration at 15 min [2]
Cn1cc(C(=O)Nc2cc(F)c(CC(=O)N3C[C@@H](F)C[C@H]3CO[C@H]3CC[C@H](C(=O)O)CC3)cc2Cl)c2ccccc21 [Example 65, trans-4-(1-((5-Chloro-2-fluoro-4-((1-methyl-3-indolylcarbonyl)amino)phenyl)acetyl)-(4S)-fluoro-(2S)-pyrrolidinylmethoxy)cyclohexanecarboxylic acid]	4 nM	11500 ng/mL
Cn1cc(C(=O)Nc2ccc(CC(=O)N3C[C@@H](F)C[C@H]3CO[C@H]3CC[C@H](C(=O)O)CC3)cc2F)c2ccccc21 [Example 70, trans-4-(1-(3-Fluoro-4-(1-methyl-3-indolyl)carbonylaminophenylacetyl)-(4S)-fluoro-(2S)-pyrrolidinylmethoxy)cyclohexanecarboxylic acid]	7.2 nM	2800 ng/mL
Cn1cc(C(=O)Nc2cc(F)c(CC(=O)N3C[C@@H](F)C[C@H]3CO[C@H]3CC[C@H](C(=O)O)CC3)cc2F)c2ccccc21 [Example 71, trans-4-(1-(2,5-Difluoro-4-((1-methyl-1H-3-indolylcarbonyl)amino)phenylacetyl)-(4S)-fluoro-(2S)-pyrrolidinylmethoxy)cyclohexanecarboxylic acid]	18 nM	7340 ng/mL
Cn1cc(C(=O)Nc2cc(Cl)c(CC(=O)N3C[C@@H](F)C[C@H]3CO[C@H]3CC[C@H](C(=O)O)CC3)cc2Cl)c2ccccc21 [Example 72, trans-4-(1-(2,5-Dichloro-4-((1-methyl-1H-3-indolylcarbonyl)amino)phenylacetyl)-(4S)-fluoro-(2S)-pyrrolidinylmethoxy)cyclohexanecarboxylic acid]	4.4 nM	1880 ng/mL
Cn1cc(C(=O)Nc2cc(F)c(CC(=O)N3C[C@@H](F)C[C@H]3CO[C@H]3CC[C@H](C(=O)O)CC3)cc2Cl)c2cc(F)ccc21 [Example 74, trans-4-(1-((5-Chloro-2-fluoro-4-(((5-fluoro-1-methyl-3-indolyl)carbonyl)amino)phenyl)acetyl)-(4S)-fluoro-(2S)-pyrrolidinylmethoxy)cyclohexanecarboxylic acid]	7.7 nM	14100 ng/mL

Continued, values first:

Ki [1]	concentration at 15 min [2]	SMILES
4.5 nM	9370 ng/mL	O=C(Nc1ccc(CC(=O)N2C[C@@H](F)C[C@H]2CO[C@H]2CC[C@H](C(=O)O)CC2)cc1Br)c1nccc2ccccc12 [Example 79, trans-4-(1-((3-Bromo-4-((1-isoquinolinylcarbonyl)amino)phenyl)acetyl)-(4S)-fluoro-(2S)-pyrrolidinylmethoxy)cyclohexanecarboxylic acid]
1.9 nM	1540 ng/mL	O=C(Nc1ccc(CC(=O)N2C[C@@H](F)C[C@H]2CO[C@H]2CC[C@H](C(=O)O)CC2)cc1Cl)c1nsc2ccccc12 [Example 83, trans-4-(1-(3-Chloro-4-((3-benzo(d)isothiazolylcarbonyl)amino)phenylacetyl)-(4S)-fluoro-(2S)-pyrrolidinylmethoxy)cyclohexanecarboxylic acid]
9.1 nM	15100 ng/mL	Cn1nc(C(=O)Nc2cc(F)c(CC(=O)N3C[C@@H](F)C[C@H]3CO[C@H]3CC[C@H](C(=O)O)CC3)cc2Cl)c2ccccc21 [Example 87, trans-4-(1-((5-Chloro-2-fluoro-4-((1-methyl-3-indazolylcarbonyl)amino)phenyl)acetyl)-(4S)-fluoro-(2S)-pyrrolidinylmethoxy)cyclohexanecarboxylic acid]
3.6 nM	10900 ng/mL	Cn1nc(C(=O)Nc2ccc(CC(=O)N3C[C@@H](F)C[C@H]3CO[C@H]3CC[C@H](C(=O)O)CC3)cc2Cl)c2ccccc21 [Example 89, trans-4-(1-((3-Chloro-4-((1-methyl-3-indazolylcarbonyl)amino)phenyl)acetyl)-(4S)-fluoro-(2S)-pyrrolidinylmethoxy)cyclohexanecarboxylic acid]
